The values that follow come from patent US9150537B2, “Bicyclic compound and use thereof for medical purposes” (ONO PHARMACEUTICAL CO., LTD., priority 2011, dated 2015).

For data set [1], the target named is T1, mouse FP receptor (Mus musculus, UniProt P43117).
T1 construct: expressed in transfected cells; host or cells: CHO (FP-CHO)
Kind of data set: Measurement of FP agonist activity (intracellular calcium concentration) in FP-CHO cells. The note with it: read-out: Agonist activity on various prostanoid receptors: EC50 value, FP. In kind it is cell-based. The source says: (§1) (1-1) Measurement of Agonist Activity on Various Mouse Prostanoid Receptors
(§2) Using CHO cells (FP-CHO, EP2-CHO, EP4-CHO and IP-CHO, respectively) in which various mouse prostanoid receptors were forcibly expressed, respectively, agonist activity of test compounds on various prostanoid receptors was studied employing an intracellular calcium concentration regarding FP, and an intracellular cyclic AMP (hereinafter, abbreviated as cAMP) production amount regarding IP, EP2 and EP4 as an index.
(§3) The test compound and a control substance (PGE2, PGF2α, and iroprost) were dissolved with dimethyl sulfoxide (DMSO) to prepare a 10 mmol/L solution. Regarding the prepared 10 mmol/L solution, upon use, the 10 mmol/L solution was thawed, stepwisely-diluted using DMSO, and diluted with a buffer solution for measurement or a buffer solution for measurement 2, which was subjected to an experiment. […]
The 96-well UV plate was set in a fluorescent spectral photometer (FDSS-3000, Hamamatsu Photonics K.K.), and an intracellular calcium concentration was measured. […]

For data set [2], the target named is T2, mouse EP2 receptor (Mus musculus, UniProt Q62053).
T2 construct: expressed in transfected cells; host or cells: CHO (EP2-CHO)
Put plainly: Measurement of EP2 agonist activity (cAMP concentration) in EP2-CHO cells. In kind it is cell-based. The note with it: cAMP production, read-out: Agonist activity on various prostanoid receptors: EC50 value, EP2.
Excerpt: as §1, §2
(§4) The test compound and a control substance (PGE2, PGF2α, and iroprost) were dissolved with dimethyl sulfoxide (DMSO) to prepare a 10 mmol/L solution. Regarding the prepared 10 mmol/L solution, upon use, the 10 mmol/L solution was thawed, stepwisely-diluted using DMSO, and diluted with a buffer solution for measurement or a buffer solution for measurement 2, which was subjected to an experiment.
(§5) Cells forcibly expressing various mouse prostanoid receptors were standing-cultured at 37° C. in the presence of 5% CO2 using an α-MEM medium (Sigma) (for culturing FP-CHO, EP2-CHO and EP4-CHO) containing inactivated (56° C., 30 minutes) 9.8 vol % dialysed-FBS (Invitrogen) and penicillin-streptomycin-glutamine (GIBCO-BRL), or nucleic acid-containing α-MEM (Sigma) (for culturing IP-CHO) containing inactivated (56° C., 30 minutes) 9.8 vol % dialysed-FBS (Invitrogen) and penicillin-streptomycin glutamine (Invitrogen). Subculturing was performed by the following method.
(§6) The medium was removed, and washed with a phosphate-buffered physiological saline not containing Ca^2+ and Mg^2+ once. A suitable amount of trypsin-EDTA (Invitrogen) was added, this was incubated at 37° C. for about 3 minutes, cells were peeled, and a medium having a volume which is 10-fold a volume of trypsin-EDTA was added to stop an enzymatic reaction. After cells were recovered (120 g) into a centrifuging tube, and centrifuged at room temperature for 3 minutes, the supernatant was removed. Cells were suspended in a suitable amount of a medium, and seeded in a culturing flask. […]

Data set [3] deals with T3, mouse EP4 receptor (Mus musculus, UniProt P32240).
T3 construct: expressed in transfected cells; host or cells: CHO (EP4-CHO)
Kind of data set: Measurement of EP4 agonist activity (cAMP concentration) in EP4-CHO cells. To be noted: cAMP production, read-out: Agonist activity on various prostanoid receptors: EC50 value, EP4. The format is cell-based.
Excerpt: as §1, §2, §4, §5, §6

For data set [4], the target named is T4, mouse IP receptor (Mus musculus, UniProt P43252).
T4 construct: expressed in transfected cells; host or cells: CHO (IP-CHO)
Kind of data set: Measurement of IP agonist activity (cAMP concentration) in IP-CHO cells. To be noted: cAMP production, read-out: Agonist activity on various prostanoid receptors: EC50 value, IP. In kind it is cell-based.
Excerpt: as §1, §2, §3

Data set [5] has as its system male dog (TOYO Beagle). Kind of data set: Intraocular pressure lowering action in dog after ocular instillation. In kind it is in vivo. To be noted: ocular instillation 30 μL, maximum among 2, 4, 6, 8, 24 hours, dose 30 μg/mL Example 16 (1), 50 μg/mL latanoprost. Here is the method: (2-1) Intraocular Pressure Lowering Action
To one eye of a male dog (TOYO Beagle) which had been sufficiently acclimated in advance was ocular-instilled 30 μL of the compound of Example 16 (1) which had been adjusted with a base (containing citrate buffer pH 6.5, 0.5% polysorbate 80, 1% propylene glycol, 0.01% benzalkonium chloride) to 0.003% (w/v), respectively. The other eye was not treated. As a positive control compound, latanoprost which is the known compound was used.
Thereafter, an ocular surface anesthetic (Benoxil eye drops 0.4%, Santen Pharmaceutical Co., Ltd.) was subjected to ocular instillation to locally anesthetize eyes, and an intraocular pressure of each test compound before ocular instillation and after 2, 4, 6, 8, and 24 hours from ocular instillation was measured. An intraocular pressure was measured using a pneumatic applanation flat tonometer (Model 30 Classic, REICHERT). An intraocular pressure lowering rate (%) was calculated by the following equation.

Data set [6] relates to male rabbit (NewZealandWhite). Put plainly: Assessment of ocular stimulating property (Draize score) in rabbit. To be noted: ocular instillation 30 μL, 1000 μg/mL, observed 0 to 8 hours (FIG. 1). In kind it is in vivo. Here is the method: (§7) (2-2) Assessment of Ocular Stimulating Property and Aqueous Humor Protein Concentration
To one eye of a male rabbit (NewZealandWhite, 2.0 to 3.0 kg) was ocular-instilled 30 μL of the compound of Example 16 (1) which had been adjusted to 0.1% (w/v) with a base (containing citrate buffer pH 6.5, 0.5% polysorbate 80, 1% propylene glycol, 0.01% benzalkonium chloride), respectively. Thereafter, an aqueous humor in anterior chamber after 0, 1, 2, 4, 6 and 8 hours from ocular instillation was collected, and a protein concentration in the humor was measured. […]
Observation of the ocular general state was performed after 0, 1, 2, 4, 6 and 8 hours from ocular instillation, and visual remark of cornea, iris, and conjunctiva was observed according to determination criteria of the Draize method. A total of points of the resulting assessment points of each item (=A1×B1×5+A2×5+(A3+B3+C3)×2) was assessed as a Draize score. […]
(§8) Regarding any test compound, a dose of 1000 μg/mL was administered and action of each active body was assessed.

For data set [7], the system named is male rabbit (NewZealandWhite). Put plainly: Aqueous humor protein concentration in rabbit after ocular instillation. The note with it: ocular instillation 30 μL, 1000 μg/mL, 0 to 8 hours (FIG. 2). In kind it is in vivo. The method, then: as §7
To one eye of a male rabbit (NewZealandWhite, 2.0 to 3.0 kg) was ocular-instilled 30 μL of the compound of Example 16 (1) which had been adjusted to 0.1% (w/v) with a base (containing citrate buffer pH 6.5, 0.5% polysorbate 80, 1% propylene glycol, 0.01% benzalkonium chloride), respectively. Thereafter, an aqueous humor in anterior chamber after 0, 1, 2, 4, 6 and 8 hours from ocular instillation was collected, and a protein concentration in the humor was measured. As comparative compounds, the aforementioned methyl ester of the compound of Example 12 described in Patent Literature 2 (i.e. compound of Example 10 described in Patent Literature 2) (hereinafter, abbreviated as Comparative Compound C in some cases) and the aforementioned methyl ester of the Comparative Compound B (i.e. optically active body (2S isomer) of the compound of Example 1 (F) described in Patent Literature 1) (hereinafter, abbreviated as Compound D in some cases) were used.
as §8

The subject of data set [8] is male monkey (crab-eating monkey). Kind of data set: Intraocular pressure lowering action in monkey under consciousness. The format is in vivo. The note with it: conscious crab-eating monkey, ocular instillation 30 μL, 10 μg/mL Comparative Compound C, 30 μg/mL Example 16 (1). Here is the method: (2-3) Intraocular Pressure Lowering Action in Monkey Under Consciousness
To a left eye of a male monkey (crab-eating monkey) under consciousness was ocular instillation-administered 30 μL of a solution obtained by adjusting a test substance using the same base as that described above and, to a right eye was ocular instillation-administered 30 μL of a solution of only a base as a control, respectively. An intraocular pressure after administration was measured with time from administration initiation to after 24 hours. Upon measurement of an intraocular pressure, a crab-eating monkey was fixed on a monkey chair, and the monkey was anesthetized by ocular instillation-administering an ocular surface anesthetic (Benoxil eye drops 0.4% Santen Pharmaceutical Co., Ltd.). After mounting of a blepharostat (Handaya Co., Ltd.), an intraocular pressure of both eyes was measured (5 to 8 examples per group) using a pneumatic applanation flat tonometer (Model 30 Classic, REICHERT). A difference in an intraocular pressure value between control eyes and eyes to which a test substance had been administered, was calculated as an intraocular pressure lowering rate using the following equation, and sustainability of intraocular eye lowering action was assessed using a maximum intraocular pressure lowering rate during measurement and an intraocular pressure lowering rate after 24 hours. […]

pEC50: −log10 of the molar value. A value given as a limit tells only on which side of the number the result lay.

T3 sequence (P32240 whole entry): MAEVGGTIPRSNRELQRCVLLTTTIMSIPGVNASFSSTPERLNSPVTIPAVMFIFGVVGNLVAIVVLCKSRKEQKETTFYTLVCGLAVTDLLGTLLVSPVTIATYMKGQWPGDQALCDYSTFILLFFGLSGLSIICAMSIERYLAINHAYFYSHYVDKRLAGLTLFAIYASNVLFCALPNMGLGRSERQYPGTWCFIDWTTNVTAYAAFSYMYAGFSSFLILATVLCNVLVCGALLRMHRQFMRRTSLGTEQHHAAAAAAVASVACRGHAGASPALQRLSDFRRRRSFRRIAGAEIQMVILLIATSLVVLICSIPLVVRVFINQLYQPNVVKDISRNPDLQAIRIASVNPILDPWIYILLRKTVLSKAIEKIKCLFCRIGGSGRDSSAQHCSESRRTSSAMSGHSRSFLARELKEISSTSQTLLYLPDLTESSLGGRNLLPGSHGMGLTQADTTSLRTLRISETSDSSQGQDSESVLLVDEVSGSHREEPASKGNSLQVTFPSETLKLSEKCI
T2 sequence (Q62053 whole entry): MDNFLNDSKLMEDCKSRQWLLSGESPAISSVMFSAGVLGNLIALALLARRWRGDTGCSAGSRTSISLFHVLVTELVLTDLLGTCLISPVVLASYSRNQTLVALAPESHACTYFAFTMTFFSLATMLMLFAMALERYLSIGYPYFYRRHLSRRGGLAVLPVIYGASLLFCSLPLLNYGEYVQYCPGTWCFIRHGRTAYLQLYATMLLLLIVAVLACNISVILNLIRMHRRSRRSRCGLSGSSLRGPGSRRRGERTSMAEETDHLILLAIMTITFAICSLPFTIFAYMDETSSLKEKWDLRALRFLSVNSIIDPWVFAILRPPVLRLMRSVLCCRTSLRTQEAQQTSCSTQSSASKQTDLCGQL
T1 sequence (P43117 whole entry): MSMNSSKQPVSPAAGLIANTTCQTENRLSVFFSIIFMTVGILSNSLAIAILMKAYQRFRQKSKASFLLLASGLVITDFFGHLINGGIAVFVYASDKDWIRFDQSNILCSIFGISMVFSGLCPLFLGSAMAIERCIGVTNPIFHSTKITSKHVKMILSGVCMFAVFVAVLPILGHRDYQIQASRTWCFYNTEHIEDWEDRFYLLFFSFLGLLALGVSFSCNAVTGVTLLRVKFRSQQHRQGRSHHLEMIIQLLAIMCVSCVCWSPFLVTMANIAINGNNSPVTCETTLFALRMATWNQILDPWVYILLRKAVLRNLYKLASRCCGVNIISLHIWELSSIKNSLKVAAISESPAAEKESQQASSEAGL
T4 sequence (P43252 whole entry): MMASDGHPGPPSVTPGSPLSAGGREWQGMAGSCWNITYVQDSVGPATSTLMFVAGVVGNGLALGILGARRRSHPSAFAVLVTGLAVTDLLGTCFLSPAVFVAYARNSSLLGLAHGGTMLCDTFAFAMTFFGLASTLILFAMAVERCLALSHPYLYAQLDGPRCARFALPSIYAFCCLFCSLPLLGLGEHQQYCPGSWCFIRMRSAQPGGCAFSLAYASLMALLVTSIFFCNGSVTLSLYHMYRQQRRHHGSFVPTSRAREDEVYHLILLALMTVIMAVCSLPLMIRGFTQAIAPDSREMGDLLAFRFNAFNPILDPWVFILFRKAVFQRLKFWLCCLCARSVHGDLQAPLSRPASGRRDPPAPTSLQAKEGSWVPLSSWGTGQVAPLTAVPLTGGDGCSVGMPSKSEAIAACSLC

For the compound `CCCCC[C@H](O)/C=C/[C@@H]1[C@H]2CC[C@H](CCCC(=O)O)S[C@H]2C[C@H]1O` [Comparative Compound B, 4-{(2S,4aR,5R,6R,7aS)-6-hydroxy-5-[(1E,3S)-3-hydroxy-1-octen-1-yl]octahydrocyclopenta[b]thiopyran-2-yl}butanoic acid, reference compound], the pEC50 in data set [1] is 8.05; in data set [2], 7.66; in data set [3], 6.42; in data set [4], 6.05.
As to `O=C(O)CCC[C@H]1CC[C@@H]2[C@@H](/C=C/[C@@H](O)COc3ccccc3)[C@H](O)C[C@@H]2O1` [Comparative Compound A], the figures for the negative-log EC50 (pEC50) in data set [2] and in data set [3] were under 4.00 and 5.21, respectively.
For `CC(C)OC(=O)CCC[C@H]1CC[C@@H]2[C@@H](/C=C/[C@@H](O)COc3ccccc3)[C@H](O)C[C@@H]2S1` [Example 16 (1), 2-Propanyl 4-{(2S,4aR,5R,6R,7aS)-6-hydroxy-5-[(1E,3R)-3-hydroxy-4-phenoxy-1-buten-1-yl]octahydrocyclopenta[b]thiopyran-2-yl}butanoate], the “Maximum of intraocular pressure lowering rate” value in data set [5] is 34.2%. The “Classification of ocular stimulating property from maximum of the Draize score” value in data set [6] is “non-stimulating substance (A Draize score of 0 or more and 5 or less was a non-stimulating substance)”. In addition, the “Action on protein concentration in aqueous humor” value in data set [7] is on record as “no action of raising a protein concentration in an aqueous humor”. The “Intraocular pressure lowering rate after 24 hours” value in data set [8] (24 hours) is listed as 23.1 ± 2.7%. In addition, in data set [8], the “Maximum intraocular pressure lowering rate” value worked out at 25.3 ± 2.4%.
With `O=C(O)CCC[C@H]1CC[C@@H]2[C@@H](/C=C/[C@@H](O)COc3ccccc3)[C@H](O)C[C@@H]2S1` [Example 15, 4-{(2S,4aR,5R,6R,7aS)-6-hydroxy-5-[(1E,3R)-3-hydroxy-4-phenoxy-1-buten-1-yl]octahydrocyclopenta[b]thiopyran-2-yl}butanoic acid], the negative logarithm of the EC50 (pEC50) in data set [1] was 8.47; in data set [2], under 4.00; in data set [3], under 4.00; in data set [4], 5.21.
